Assays:
Type in all cases: in vivo
[1] = system: Zea mays (corn), cv. 'Lorenzo'; test: Pre-emergence application of herbicide and safener by the tank mix method: crop damage
Description: (§1) Seeds of various crop plants and weed species were sown in sandy loam soil in plastic pots of a diameter of 13 cm and covered with a layer of sandy loam of a thickness of about 1 cm. Herbicides and safeners in the form of liquid (for example emulsion concentrates) or dry (for example water-dispersible powders) formulations were diluted with deionized water to the required concentration and applied to the surface of the soil with a spray bar using a water application rate of 300 liters per hectare. In the experiment shown below, the safeners were used as 20 percent strength water-dispersible powders and the herbicide isoxaflutole was used as an aqueous suspension concentrate (see table 1.1.1).
(§2) The pots were placed in a greenhouse under favorable growth conditions. Visual scoring of the herbicidal action was carried out four weeks after the herbicide application. Evaluation was carried out on a percentage basis by comparison with untreated control plants (0%=no noticeable effect compared with the untreated plant, 100%=treated plant dies).

Chenopodium album = test: Pre-emergence application of herbicide and safener by the tank mix method: herbicidal action; conditions: four weeks
Description: as §1, §2

Setaria viridis [2] = test: as above; conditions: four weeks
Description: as §1, §2

[3] = system: Zea mays (corn), cv. 'Lorenzo'; test: Post-emergence application of herbicide and safener by the tank mix method: crop damage; conditions: for Safener action as % damage reduction in crop plants: ZEAMA
Text: (§3) Seeds of various crop plants and weed species were sown in sandy loam soil in round plastic pots of a diameter of 13 cm and covered with a layer of sandy loam of a thickness of about 1 cm. The pots were placed in a greenhouse under favorable growth conditions for a period of about two to three weeks, allowing the plants to reach a growth stage of 2 to 4 leaves. The herbicides in the form of liquid (for example emulsion concentrates) or dry (for example water-dispersible powders) formulations were mixed with a standard additive (based on rapeseed oil methyl ester), diluted with deionized water to the required concentrations and applied to the green parts of the plants and the uncovered part of the soil surface with a spray bar using a water application rate of 300 liters per hectare. In the experiment shown below, safener and the herbicide foramsulfuron were in each case used as 20 percent strength water-dispersible powder (results see table 1.2.1).
as §2

Setaria viridis [4] = test: Post-emergence application of herbicide and safener by the tank mix method: herbicidal action; conditions: four weeks
Text: as §3, §2

Amaranthus retroflexus = test: as above; conditions: four weeks
Text: as §3, §2

[5] = system: Zea mays (corn), cv. 'Lorenzo'; test: Post-emergence application of herbicide after seed dressing with safener; conditions: for Safener action as % damage reduction in crop plants: ZEAMA
Description: (§4) The number of crop plant seeds required for each application rate of safener was calculated. Sufficient seeds were weighed out into glass bottles having a screw-on lid. The volume of the glass bottles was approximately twice that of the seeds weighed out.
(§5) The safeners were formulated as 20 percent strength water-dispersible powders. These formulations were weighed out to give the required application rates (g of a.i./kg of seed). The samples were added to the seeds in the glass containers, and sufficient water to form a suitable seed dressing was then added. The glass bottles were closed and then mounted in an overhead shaker (which turns the bottles at moderate speed for a period of up to one hour) so that the seeds were uniformly covered with the seed dressing. The bottles were opened and the seeds were ready for use in pre-emergence or post-emergence experiments, as described below.
as §3, with “The seeds treated with safener” for “Seeds of various crop plants”, “untreated seeds” for “weed species”, “2.3.1).” for “1.2.1).”
The pots were placed in a greenhouse under favorable growth conditions. Visual scoring of the herbicidal action was carried out four weeks after the herbicide application. Evaluation was carried out on a percentage base by comparison with untreated control plants (0%=no noticeable effect compared with the untreated plant, 100%=treated plant dies).

[6] = system: Glycine max (soybean), cv. 'Lambert'; test: Pre-emergence application of herbicide after seed dressing with safener; conditions: for Safener action as % damage reduction in crop plants: GLXMA
Description: as §4, §5
(§6) The seeds which had been treated with safeners and untreated seeds as controls were sown in sandy loam soil in round plastic pots of a diameter of 13 cm and covered with a layer of sandy loam of a thickness of about 1 cm. The herbicides in the form of liquid (for example emulsion concentrates) or dry (for example water-dispersible powders) formulations were diluted with deionized water to the required concentrations and applied to the surface of the soil with a spray bar using a water application rate of 300 liters per hectare. In the two experiments shown below (results see tables 2.2.1 and 2.2.2), the herbicide isoxaflutole was used as an aqueous suspension concentrate.
as §2

[7] = system: Zea mays (corn), cv. 'Lorenzo'; test: as above; conditions: for Safener action as % damage reduction in crop plants: ZEAMA
Description: as §4, §5, §6, §2

[8] = safener 250 g of a.i./ha + herbicide H1 (isoxaflutole) 100 g of a.i./ha, pre-emergence tank mix
[9] = safener 250 g of a.i./ha + herbicide H2 (foramsulfuron) 40 g of a.i./ha, post-emergence tank mix
[10] = seed dressing with safener 1 g of a.i./kg of seed, herbicide H2 (foramsulfuron) 40 g of a.i./ha post-emergence
[11] = seed dressing with safener 1 g of a.i./kg of seed, herbicide H1 (isoxaflutole) 100 g of a.i./ha pre-emergence
[12] = seed dressing with safener 1 g of a.i./kg of seed, herbicide H1 (isoxaflutole) 100 g of a.i./ha pre-emergence, four weeks
[13] = herbicide H1 (isoxaflutole) 100 g of a.i./ha alone, no safener, pre-emergence
[14] = herbicide H2 (foramsulfuron) 40 g of a.i./ha alone, no safener, post-emergence

| SMILES | Safener action as % damage reduction in ZEAMA [1, 8] | Herbicidal action in CHEAL (in %) (Chenopodium album; [8]) | Herbicidal action in SETVI (in %) (Setaria viridis [2]; [8]) | Safener action as % damage reduction in crop plants [3, 9] | Herbicidal action as % damage in SETVI (Setaria viridis [4]; [9]) | Herbicidal action as % damage in AMARE (Amaranthus retroflexus; [9]) | Safener action as % damage reduction in crop plants [5, 10] | % damage in ZEAMA ([5]; in vivo) | Safener action as % damage reduction in crop plants [6, 11] | % damage in GLXMA ([6]; in vivo) | Safener action as % damage reduction in crop plants [7, 11] | % damage in ZEAMA ([7]; in vivo) | other results |
| --- | --- | --- | --- | --- | --- | --- | --- | --- | --- | --- | --- | --- | --- |
| O=C(O)c1cc(O)cc(O)c1 [Comp. 1050, 3,5-dihydroxybenzoic acid] | 88% | 97% | 96% | 69% | 97% | 90% | 86% | 5% | 64% | 28% | 75% | 5% |  |
| COc1cc(C(=O)O)cc(OC)c1O [Comp. 1272, 3,5-dimethoxy-4-hydroxybenzoic acid] | 52% | 94% | 98% | 53% | 95% | 92% | 79% |  | 55% |  | 50% |  | % damage in ZEAMA ([1]; safener 250 g of a.i./ha + herbicide H1 (isoxaflutole) 100 g of a.i./ha, pre-emergence tank mix, visual scoring four weeks after application): 12%; % damage in ZEAMA ([3]; safener 250 g of a.i./ha + herbicide H2 (foramsulfuron) 40 g of a.i./ha, post-emergence tank mix, visual scoring four weeks after application): 15%; % damage in ZEAMA ([5]; seed dressing with safener 1 g of a.i./kg of seed, herbicide H2 (foramsulfuron) 40 g of a.i./ha post-emergence, four weeks): 7.5%; % damage in GLXMA [6, 12]: 35%; % damage in ZEAMA [7, 12]: 10% |
| CS(=O)(=O)c1cc(C(F)(F)F)ccc1C(=O)c1cnoc1C1CC1 [Herbicide H1, isoxaflutole, reference compound] |  |  |  |  |  |  |  |  |  | 78% |  | 20% | % damage in ZEAMA ([1]; in vivo): 25%; Herbicidal action in CHEAL (in %) (Chenopodium album; [13]): 94%; Herbicidal action in SETVI (in %) (Setaria viridis [2]; [13]): 96% |
| COc1cc(OC)nc(NC(=O)NS(=O)(=O)c2cc(NC=O)ccc2C(=O)N(C)C)n1 [Herbicide H2, foramsulfuron, reference compound] |  |  |  |  |  |  |  | 35% |  |  |  |  | % damage in ZEAMA ([3]; in vivo): 32%; Herbicidal action as % damage in SETVI (Setaria viridis [4]; [14]): 93%; Herbicidal action as % damage in AMARE (Amaranthus retroflexus; [14]): 90% |
